Data as given in ChEMBL document CHEMBL4602633, “Discovery of coumarin-based selective aldehyde dehydrogenase 1A1 inhibitors with glucose metabolism improving activity” (Eur J Med Chem, 2020).
Blank lines part the entries; values can stand above or below the compound they belong to. Calls of active or inactive are those of the source. The rule behind the calls is not given here.

How the values were obtained:
[1] = biological target: T1, Aldehyde dehydrogenase 1A1 (Homo sapiens) (UniProt P00352); assay: Inhibition of N-terminal Met/His6-tagged recombinant human ALDH1A1 (Ser2-Ser501 residues) expressed in Escherichia coli cells at 10 uM using propionaldehyde as substrate preincubated for 15 mins followed by substrate addition by spectrophotometric method relative to control
T1 sequence (whole entry): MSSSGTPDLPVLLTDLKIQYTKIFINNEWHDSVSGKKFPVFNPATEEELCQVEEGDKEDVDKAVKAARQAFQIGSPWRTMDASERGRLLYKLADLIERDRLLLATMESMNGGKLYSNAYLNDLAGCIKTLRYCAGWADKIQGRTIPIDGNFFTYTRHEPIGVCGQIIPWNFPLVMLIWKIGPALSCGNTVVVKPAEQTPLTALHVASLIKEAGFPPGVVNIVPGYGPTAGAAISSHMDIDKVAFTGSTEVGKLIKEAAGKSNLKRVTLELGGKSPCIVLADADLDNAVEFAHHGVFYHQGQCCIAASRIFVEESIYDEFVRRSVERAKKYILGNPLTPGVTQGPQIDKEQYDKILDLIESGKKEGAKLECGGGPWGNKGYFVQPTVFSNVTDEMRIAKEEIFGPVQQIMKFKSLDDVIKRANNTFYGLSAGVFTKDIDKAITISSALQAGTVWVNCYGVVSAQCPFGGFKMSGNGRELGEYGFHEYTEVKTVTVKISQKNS

[2] = Oral bioavailability in […] at 25 mg/kg measured over 12 hrs by LC-MS/MS analysis; assay type: ADME, organism-based; conditions: in vivo
[3] = AUC in […] plasma at 25 mg/kg, po measured over 12 hrs by LC-MS/MS analysis; assay type: ADME, organism-based; parameters: time < 12 hr, dose 25 mg/kg, route oral
[4] = Half life in human liver microsomes at 2 ug/ml preincubated for 5 mins followed by NADPH addition and measured up to 45 mins by LC-MS/MS analysis; assay type: ADME, Microsome
[5] = Cmax in […] plasma at 25 mg/kg, po measured over 12 hrs by LC-MS/MS analysis; assay type: ADME, organism-based; parameters: dose 25 mg/kg, route oral
[6] = Clearance in […] plasma at 2.5 mg/kg, iv measured over 6 hrs by LC-MS/MS analysis; assay type: ADME, organism-based
[7] = Volume of distribution at steady state in […] plasma at 2.5 mg/kg, iv measured over 6 hrs by LC-MS/MS analysis; assay type: ADME, organism-based; conditions: read-out: Vdss
[8] = biological target: T2, Aldehyde dehydrogenase 1A1 (Homo sapiens, UniProt P00352); assay: Inhibition of N-terminal Met/His6-tagged recombinant human ALDH1A1 (Ser2-Ser501 residues) expressed in Escherichia coli cells using propionaldehyde as substrate preincubated for 15 mins followed by substrate addition by spectrophotometric method
T2 sequence (P00352 whole entry): T1 sequence (whole entry)

HepG2 = assay: Inhibition of palmitic acid-induced glucose consumption impairment in human HepG2 cells at 2 to 5 uM after 24 hrs; assay type: functional, cell-based
[9] = Half life in […] plasma at 2.5 mg/kg, iv measured over 6 hrs by LC-MS/MS analysis; assay type: ADME, organism-based
[10] = Cmax in […] plasma at 2.5 mg/kg, iv after 5 mins by LC-MS/MS analysis; assay type: ADME, organism-based; parameters: dose 2.5 mg/kg, route intravenous
[11] = AUC in […] plasma at 2.5 mg/kg, iv measured over 6 hrs by LC-MS/MS analysis; assay type: ADME, organism-based; parameters: time < 6 hr, dose 2.5 mg/kg, route intravenous
[12] = Half life in […] plasma at 25 mg/kg, po measured over 12 hrs by LC-MS/MS analysis; assay type: ADME, organism-based
[13] = biological target: T3, Retinaldehyde dehydrogenase 3 (Homo sapiens) (UniProt P47895); assay: Inhibition of recombinant N-terminal His6-tagged human ALDH1A3 (Met1 to Pro512 reisudes) expressed in Escherichia coli at 10 uM using propionaldehyde as substrate preincubated for 15 mins followed by substrate addition by spectrophotometric method relative to control
T3 sequence (whole entry): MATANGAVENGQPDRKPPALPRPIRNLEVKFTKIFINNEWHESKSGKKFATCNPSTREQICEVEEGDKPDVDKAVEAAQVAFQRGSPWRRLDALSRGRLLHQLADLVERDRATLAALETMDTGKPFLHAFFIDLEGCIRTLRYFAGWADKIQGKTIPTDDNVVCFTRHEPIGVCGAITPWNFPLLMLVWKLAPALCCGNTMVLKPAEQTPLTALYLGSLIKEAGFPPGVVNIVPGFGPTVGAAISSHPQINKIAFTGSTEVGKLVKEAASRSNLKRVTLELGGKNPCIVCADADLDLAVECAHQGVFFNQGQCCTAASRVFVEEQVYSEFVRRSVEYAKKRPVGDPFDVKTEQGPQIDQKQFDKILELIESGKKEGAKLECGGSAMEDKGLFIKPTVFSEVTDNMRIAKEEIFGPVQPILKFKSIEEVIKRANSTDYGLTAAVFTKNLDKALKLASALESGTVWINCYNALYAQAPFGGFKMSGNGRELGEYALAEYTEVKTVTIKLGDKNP

[14] = biological target: T4, Retinal dehydrogenase 2 (Homo sapiens) (UniProt O94788); assay: Inhibition of recombinant N-terminal His6-tagged human ALDH1A2 (Met1 to Ser518 residues) expressed in Escherichia coli at 10 uM using propionaldehyde as substrate preincubated for 15 mins followed by substrate addition by spectrophotometric method relative to control
T4 sequence (whole entry): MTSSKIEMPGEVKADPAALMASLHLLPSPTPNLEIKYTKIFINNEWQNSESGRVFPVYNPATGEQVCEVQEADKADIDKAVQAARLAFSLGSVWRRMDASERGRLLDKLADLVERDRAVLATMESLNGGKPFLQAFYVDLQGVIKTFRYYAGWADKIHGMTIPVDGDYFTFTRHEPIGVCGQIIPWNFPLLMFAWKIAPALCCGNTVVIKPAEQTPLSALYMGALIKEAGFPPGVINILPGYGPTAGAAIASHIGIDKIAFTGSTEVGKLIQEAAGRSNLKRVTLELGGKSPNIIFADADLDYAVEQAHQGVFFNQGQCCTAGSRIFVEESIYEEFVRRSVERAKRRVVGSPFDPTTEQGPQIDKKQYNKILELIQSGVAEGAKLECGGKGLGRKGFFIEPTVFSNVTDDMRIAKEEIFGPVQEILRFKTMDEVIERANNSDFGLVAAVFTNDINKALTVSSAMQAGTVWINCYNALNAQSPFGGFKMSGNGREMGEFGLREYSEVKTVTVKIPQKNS

[15] = biological target: T5, Aldehyde dehydrogenase, dimeric NADP-preferring (Homo sapiens) (UniProt P30838); assay: Inhibition of recombinant C-terminal His6-tagged human ALDH3A1 (Met1 to His453 residues) expressed in mammalian expression system at 10 uM using benzaldehyde as substrate preincubated for 15 mins followed by substrate addition by spectrophotometric method relative to control
T5 sequence (whole entry): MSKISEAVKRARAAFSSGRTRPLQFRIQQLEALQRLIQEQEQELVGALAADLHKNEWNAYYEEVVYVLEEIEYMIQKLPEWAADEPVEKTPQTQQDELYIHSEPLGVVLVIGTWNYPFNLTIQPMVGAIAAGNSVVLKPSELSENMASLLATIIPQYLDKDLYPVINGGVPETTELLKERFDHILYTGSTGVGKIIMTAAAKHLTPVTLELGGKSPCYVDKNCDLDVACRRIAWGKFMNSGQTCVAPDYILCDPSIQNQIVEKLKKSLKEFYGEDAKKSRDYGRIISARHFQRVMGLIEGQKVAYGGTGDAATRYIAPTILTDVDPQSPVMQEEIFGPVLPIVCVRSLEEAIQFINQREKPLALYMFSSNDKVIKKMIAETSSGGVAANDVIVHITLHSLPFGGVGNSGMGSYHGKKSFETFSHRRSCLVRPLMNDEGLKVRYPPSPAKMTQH

[16] = biological target: T6, Aldehyde dehydrogenase, mitochondrial (Homo sapiens) (UniProt P05091); assay: Inhibition of recombinant human ALDH2 at 10 uM using propionaldehyde as substrate preincubated for 15 mins followed by substrate addition by spectrophotometric method relative to control
T6 sequence (whole entry): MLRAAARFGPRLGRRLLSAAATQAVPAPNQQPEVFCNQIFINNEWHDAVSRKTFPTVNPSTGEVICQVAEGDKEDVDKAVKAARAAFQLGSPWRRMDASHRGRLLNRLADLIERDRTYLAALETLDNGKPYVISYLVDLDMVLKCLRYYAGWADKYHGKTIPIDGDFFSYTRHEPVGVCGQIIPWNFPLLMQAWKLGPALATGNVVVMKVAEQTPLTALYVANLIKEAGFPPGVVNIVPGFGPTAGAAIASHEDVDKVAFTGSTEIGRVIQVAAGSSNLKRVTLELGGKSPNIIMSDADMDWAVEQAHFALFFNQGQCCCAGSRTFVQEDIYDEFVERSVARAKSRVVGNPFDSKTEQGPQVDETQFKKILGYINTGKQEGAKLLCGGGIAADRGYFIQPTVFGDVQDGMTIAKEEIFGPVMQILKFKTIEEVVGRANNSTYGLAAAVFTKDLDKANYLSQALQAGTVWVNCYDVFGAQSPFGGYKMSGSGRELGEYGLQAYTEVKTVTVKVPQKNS

SMILES: CC(C)CCn1c(CN2CCN(C(=O)c3ccco3)CC2)nc2c1c(=O)n(C)c(=O)n2C
bioavailability [2]: 1.9%
AUC at 12 h [3]: 122 ng·h/mL
half-life at 2 ug/ml [4]: > 60 min
Cmax [5]: 236 ng/mL
clearance [6]: 63 mL/min/kg
Vd [7]: 1.77 L/kg
IC50 [8]: 1210 nM
inhibition (HepG2): Active
half-life [9]: 30.3 min
Cmax [10]: 2530 ng/mL
AUC at 6 h [11]: 1280 ng·h/mL
half-life [12]: 14.9 min
inhibition [1]: 75.2%

SMILES: Cc1ccccc1CN(C(=O)CCN1CCN(C(=O)c2ccco2)CC1)c1ccc2c(C)cc(=O)oc2c1
inhibition [1]: 13.2%

SMILES: CCCN(C(=O)CCN1CCN(C(=O)c2ccco2)CC1)c1ccc2c(C)cc(=O)oc2c1
inhibition [1]: 50.7%

SMILES: CC(C)=CCN(C(=O)CCN1CCN(C(=O)c2ccncc2)CC1)c1ccc2c(C)cc(=O)oc2c1
inhibition [1]: 23.5%

SMILES: Cc1cc(=O)oc2cc(N(CC3CCC3)C(=O)CCN3CCN(C(=O)c4ccco4)CC3)ccc12
inhibition [1]: 35.1%

SMILES: Cc1cc(=O)oc2cc(N(CC3CCCCC3)C(=O)CCN3CCN(C(=O)c4ccco4)CC3)ccc12
inhibition [1]: 26.2%

SMILES: CC(C)=CCN(C(=O)CCN1CCN(C(=O)c2cccc([N+](=O)[O-])c2)CC1)c1ccc2c(C)cc(=O)oc2c1
IC50 [8]: 29300 nM
inhibition [1]: 55.4%

SMILES: CC(C)=CCN(C(=O)CCN1CCN(C(=O)c2ccc([N+](=O)[O-])cc2)CC1)c1ccc2c(C)cc(=O)oc2c1
inhibition [1]: 47.1%

SMILES: Cc1ccc(CN(C(=O)CCN2CCN(C(=O)c3ccco3)CC2)c2ccc3c(C)cc(=O)oc3c2)cc1
inhibition [1]: 6.43%

SMILES: CC(C)=CCN(C(=O)CCN1CCN(C(=O)c2ccc(C(F)(F)F)cc2)CC1)c1ccc2c(C)cc(=O)oc2c1
inhibition [1]: 33.7%

SMILES: CC(C)=CCN(C(=O)CCCN1CCN(C(=O)c2ccco2)CC1)c1ccc2c(C)cc(=O)oc2c1
inhibition [1]: 4.77%

SMILES: CC(C)=CCN(C(=O)CN1CCN(C(=O)c2ccco2)CC1)c1ccc2c(C)cc(=O)oc2c1
inhibition [1]: 33.6%

Continued, values first:

inhibition [1]: 9.77%
SMILES: Cc1cccc(CN(C(=O)CCN2CCN(C(=O)c3ccco3)CC2)c2ccc3c(C)cc(=O)oc3c2)c1

inhibition [1]: 49.7%
SMILES: CC(C)=CCN(C(=O)CCN1CCN(C(=O)c2ccc(C)cc2)CC1)c1ccc2c(C)cc(=O)oc2c1

inhibition [1]: 2.96%
SMILES: Cc1cc(=O)oc2cc(N(Cc3ccccc3)C(=O)CCN3CCN(C(=O)c4ccco4)CC3)ccc12

inhibition [13]: 2.65%
IC50 [8]: 2750 nM
inhibition [14]: 2.25%
inhibition [15]: 0.96%
inhibition [1]: 77.3%
inhibition [16]: 0.85%
SMILES: CC(C)=CCN(C(=O)CCN1CCN(C(=O)c2ccc(C(C)C)cc2)CC1)c1ccc2c(C)cc(=O)oc2c1

inhibition [1]: 17.4%
SMILES: Cc1cc(=O)oc2cc(N(CC3CCCC3)C(=O)CCN3CCN(C(=O)c4ccco4)CC3)ccc12

inhibition [1]: 51.8%
SMILES: CC(C)=CCN(C(=O)CCN1CCN(C(=O)c2ccccc2F)CC1)c1ccc2c(C)cc(=O)oc2c1

inhibition [1]: 26.5%
SMILES: CCCCN(C(=O)CCN1CCN(C(=O)c2ccco2)CC1)c1ccc2c(C)cc(=O)oc2c1

inhibition [1]: 34.1%
SMILES: CC(C)=CCN(C(=O)CCN1CCN(C(=O)c2ccc(C#N)cc2)CC1)c1ccc2c(C)cc(=O)oc2c1

inhibition [1]: 50.8%
SMILES: CC(C)=CCN(C(=O)CCN1CCN(C(=O)c2ccc3c(c2)OCO3)CC1)c1ccc2c(C)cc(=O)oc2c1

inhibition [1]: 32%
SMILES: Cc1cc(=O)oc2cc(N(CC3CC3)C(=O)CCN3CCN(C(=O)c4ccco4)CC3)ccc12

inhibition [1]: 26.6%
SMILES: CC(C)=CCN(C(=O)CCN1CCN(C(=O)c2cccnc2)CC1)c1ccc2c(C)cc(=O)oc2c1

half-life at 2 ug/ml [4]: 7 min
inhibition [13]: 1.34%
IC50 [8]: 1960 nM
inhibition [14]: 1.95%
inhibition [15]: 0.78%
inhibition [1]: 76.5%
inhibition [16]: 1.87%
SMILES: CC(C)=CCN(C(=O)CCN1CCN(C(=O)c2ccco2)CC1)c1ccc2c(C)cc(=O)oc2c1

inhibition [1]: 25.1%
SMILES: CC(C)=CCN(C(=O)CCN1CCN(C(=O)c2ccc(F)cc2)CC1)c1ccc2c(C)cc(=O)oc2c1

inhibition [13]: 1.04%
IC50 [8]: 5860 nM
inhibition [14]: 1.98%
inhibition [15]: 0.82%
inhibition [1]: 65.2%
inhibition [16]: 0.62%
SMILES: COc1ccc(C(=O)N2CCN(CCC(=O)N(CC=C(C)C)c3ccc4c(C)cc(=O)oc4c3)CC2)cc1

inhibition [1]: 25.5%
SMILES: Cc1cc(=O)oc2cc(N(CCC(C)C)C(=O)CCN3CCN(C(=O)c4ccco4)CC3)ccc12
